The source of these data is ChEMBL document CHEMBL3414522, “Design, synthesis, and biological evaluation of novel matrix metalloproteinase inhibitors as potent antihemorrhagic agents: from hit identification to an optimized lead” (J Med Chem, 2015).

SMILES strings stand for the structures.

Data set [1] is described as follows: in vitro. The conditions noted are these: mouse, liver microsomes. (In general: Microsomes from liver hold many membrane-bound enzymes, among them those of drug oxidation.)
The nature of data set [2]: in vitro. Particulars: rat, liver microsomes.
A short description of data set [3]: in vitro. Particulars: human, liver microsomes.
Data set [4] can be described thus: Apparent permeability from apical to basolateral side in human Caco2 cells at 2 uM after 120 mins by LC-MS/MS analysis. The data set is classed as ADME, cell-based. The conditions noted are these: caco-2, 2 h. On the technique in general: Caco-2 monolayers are a common model of the intestinal barrier.

As usually defined, the share remaining is what is left of the initial amount, in per cent. `CNC(=O)c1ccc(Oc2ccc(S(=O)(=O)C3(C(=O)NO)CCC4(CCNCC4)C3)cc2)cc1` (centres undefined): the figures for the fraction remaining at 20 min, 1 µM in the data set “in vitro [1]”, in the data set “in vitro [2]” and in “in vitro [3]” were 97.5%, 99.8% and 91.1%, respectively.
For the molecule `O=C(NO)C1(S(=O)(=O)c2ccc(Oc3ccc(OC(F)(F)F)cc3)cc2)CCC2(CCNCC2)C1` (centres undefined), the share remaining at 20 min, 1 µM was found to be 87.2% in the data set “in vitro [1]”, 95.6% in “in vitro [2]” and 92.1% in “in vitro [3]”.
By Papp is commonly meant a coefficient for how fast a substance crosses the barrier. In the case of `CNC(=O)c1ccc(Oc2ccc(S(=O)(=O)[C@]3(C(=O)NO)CCC4(CCNCC4)C3)cc2)cc1`, the amount remaining at 20 min, 1 µM in the data set “in vitro [1]” amounted to 98%; in the data set “in vitro [2]”, 98.1%; in the data set “in vitro [3]”, 93.5%. Moreover, the Papp in data set [4] was 0.00016 ×10⁻⁶ cm/s.
`CNC(=O)c1ccc(Oc2ccc(S(=O)(=O)[C@@]3(C(=O)NO)CCC4(CCNCC4)C3)cc2)cc1`: the amount remaining at 20 min, 1 µM in the data set “in vitro [1]” was 89.6%; in “in vitro [2]”, 97.4%; in “in vitro [3]” it was 97%. Moreover, the Papp in data set [4] was 0.00059 ×10⁻⁶ cm/s.
